# Reference: ChEMBL document CHEMBL1201862, “PubChem BioAssay data set” (2004)
# Active and inactive are the calls of the source.
# Experiments:
# [1] = Luminescence Cell-Based Dose Retest to Confirm Inhibitors of Cancer Stem Cells. [Related pubchem assays (depositor defined):AID2717, AID2721]; type: functional; conditions: Homo sapiens
# [2] = cells
# [3] = viability of uninfected HEp-2 cells – cell-based, HTS, cytotoxicity control for RSV inhibitor project, dose response (AID 2410); type: functional; conditions: human respiratory syncytial virus
# [4] = A cytotoxicity screen of small molecule inhibitors of the PhoP region in Salmonella typhi identified in the primary screen. [Related pubchem assays: 1850, 1864, 1985 ]; type: functional
# [5] = biological target: T1, Mannose-6-phosphate isomerase (Homo sapiens, UniProt P34949); assay: MPI enzyme activity inhibition – biochemical, fluorescence intensity, coupled assay, primary screen (AID 1209)
# T1 sequence (P34949 whole entry): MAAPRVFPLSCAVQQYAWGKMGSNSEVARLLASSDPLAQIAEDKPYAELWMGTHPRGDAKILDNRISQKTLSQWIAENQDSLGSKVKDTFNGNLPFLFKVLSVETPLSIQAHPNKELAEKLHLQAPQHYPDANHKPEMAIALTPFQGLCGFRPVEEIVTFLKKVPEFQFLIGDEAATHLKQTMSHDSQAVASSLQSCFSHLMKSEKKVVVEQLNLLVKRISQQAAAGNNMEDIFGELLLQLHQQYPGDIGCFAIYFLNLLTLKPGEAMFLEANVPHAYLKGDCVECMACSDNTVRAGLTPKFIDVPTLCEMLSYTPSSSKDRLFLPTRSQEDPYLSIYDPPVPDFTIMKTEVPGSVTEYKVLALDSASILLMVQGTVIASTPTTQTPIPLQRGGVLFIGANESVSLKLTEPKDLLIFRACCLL
# [6] = biological target: T2, Bcl-2-like protein 10 (Homo sapiens, UniProt Q9HD36); assay: Bcl-B/TR3 peptide binding disruption – biochemical, fluorescence polarization, FITC-TR3 peptide, selectivity assay for Bfl-1 inhibitor project, primary screen (AID 748);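 note: fluorescence polarization from a fluorescein-labelled TR3 peptide binding purified Bcl-B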
# T2 sequence (Q9HD36 whole entry): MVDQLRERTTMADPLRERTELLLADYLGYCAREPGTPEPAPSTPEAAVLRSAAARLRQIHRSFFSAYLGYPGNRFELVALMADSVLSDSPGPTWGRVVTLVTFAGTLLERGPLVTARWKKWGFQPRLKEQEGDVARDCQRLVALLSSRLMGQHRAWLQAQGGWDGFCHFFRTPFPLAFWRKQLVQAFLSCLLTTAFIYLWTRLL
# [7] = viability of HCT116 lacking mutant beta-catenin – cell-based, human colon tumor, dose response (AID 1045); type: functional;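 note: HCT116 colon tumor cells with beta catenin knocked out; cells exposed to compound for 60 hours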
# [8] = viability of PTEN-deleted HCT116 cells – cell-based, HCT116 PTEN knockout, dose response (AID 1047); type: functional;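 note: HCT116 colon tumor cells with PTEN knocked out; cells exposed to compound for 60 hours before readout; potency for loss of cell viability measured by luminescence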
# [9] = NIH3T3 cell viability loss – ATP luminescence, mouse fibroblasts, counter-screen, dose response (AID 2010); type: functional, cell-based;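 note: cells exposed to compound for about 90 hours before reading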
# [10] = biological target: Neurotensin receptor type 1 (Homo sapiens, UniProt P30989); type: functional;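 note: Image-based confirmatory dose-response assay measuring agonist activity at NTR1; NTR1-expressing U2OS osteosarcoma cells imaged for beta-arrestin GFP spot formation; agonist potency where compounds increase beta-arrestin recruitment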
# Chain of Neurotensin receptor type 1 (P30989 whole entry): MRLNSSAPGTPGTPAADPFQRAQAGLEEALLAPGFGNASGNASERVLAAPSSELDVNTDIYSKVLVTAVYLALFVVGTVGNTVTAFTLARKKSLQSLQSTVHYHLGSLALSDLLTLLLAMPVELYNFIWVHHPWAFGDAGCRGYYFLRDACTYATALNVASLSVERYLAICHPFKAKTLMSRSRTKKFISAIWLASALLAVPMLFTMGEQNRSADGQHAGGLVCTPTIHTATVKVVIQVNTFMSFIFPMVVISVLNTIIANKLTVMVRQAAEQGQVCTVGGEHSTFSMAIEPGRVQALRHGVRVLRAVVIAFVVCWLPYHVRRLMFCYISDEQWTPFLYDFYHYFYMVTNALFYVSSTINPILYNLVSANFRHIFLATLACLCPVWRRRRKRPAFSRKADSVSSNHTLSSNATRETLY
# [11] = Trypanosoma cruzi growth suppression in host cells – NIH3T3 host cells, beta-gal luminescence, confirmation (AID 2044); type: functional, cell-based;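 note: intracellular parasites grown in NIH/3T3 mouse fibroblasts as host cells; luminescent beta-galactosidase reporter signal from transgenic T. cruzi replicating inside host cells; inhibitors lower the luminescence signal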
# [12] = biological target: T3, Carboxy-terminal domain RNA polymerase II polypeptide A small phosphatase 1 (Homo sapiens, UniProt Q9GZU7); assay: CTDSP1 inhibitors, concentration-response, biochemical, absorbance readout, ultra-high-throughput screen actives (AID 540297); type: functional
# T3 sequence (Q9GZU7 whole entry): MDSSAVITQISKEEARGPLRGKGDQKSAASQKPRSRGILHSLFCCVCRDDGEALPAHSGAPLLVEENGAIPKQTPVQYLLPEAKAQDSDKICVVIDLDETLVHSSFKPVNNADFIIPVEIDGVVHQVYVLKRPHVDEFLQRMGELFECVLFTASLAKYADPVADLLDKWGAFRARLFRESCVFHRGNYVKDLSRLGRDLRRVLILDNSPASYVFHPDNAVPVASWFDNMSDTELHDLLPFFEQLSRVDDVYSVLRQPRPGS
# [13] = biological target: NS3 (Hepatitis C virus, UniProt A3EZJ3); assay: PubChem AID 2173; parameters: species or system Hepacivirus hominis
# Chain of NS3 (A3EZJ3 whole entry): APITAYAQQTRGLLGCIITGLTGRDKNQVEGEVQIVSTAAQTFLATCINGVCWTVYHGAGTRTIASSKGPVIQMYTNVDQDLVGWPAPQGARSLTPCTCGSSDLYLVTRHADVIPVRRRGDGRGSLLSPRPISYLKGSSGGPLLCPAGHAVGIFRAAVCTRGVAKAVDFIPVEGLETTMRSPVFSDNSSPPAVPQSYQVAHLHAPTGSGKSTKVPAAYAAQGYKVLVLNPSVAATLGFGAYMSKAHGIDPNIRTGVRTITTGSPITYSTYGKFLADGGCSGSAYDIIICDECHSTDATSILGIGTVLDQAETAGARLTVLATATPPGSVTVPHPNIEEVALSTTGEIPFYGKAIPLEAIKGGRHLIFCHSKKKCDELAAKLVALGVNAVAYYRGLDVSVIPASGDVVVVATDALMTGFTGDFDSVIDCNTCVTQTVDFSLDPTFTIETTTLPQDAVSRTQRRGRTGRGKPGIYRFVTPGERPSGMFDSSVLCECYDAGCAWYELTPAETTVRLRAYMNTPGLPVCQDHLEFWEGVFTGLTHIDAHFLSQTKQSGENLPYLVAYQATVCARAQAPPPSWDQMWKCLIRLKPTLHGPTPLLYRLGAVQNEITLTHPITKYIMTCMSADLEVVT
# [14] = microbe, parasite or virus in culture; type: functional; conditions: Mycobacterium tuberculosis
# [15] = tested on: Streptococcus; assay: GAS UMAA2166 growth inhibition – luminescence, BacTiterGlo, counter-screen for streptokinase expression inhibitor project, dose response (AID 1915); type: functional, organism-based;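 note: potency for reduction of bacterial viability or growth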
# [16] = tested on: Streptococcus sp. 'group A'; assay: Streptococcus pyogenes SK(-)GAS viability under kanamycin – luminescence, BacTiterGlo, confirmation, counter-screen for streptokinase expression inhibitor project, dose response (AID 1900); type: functional, organism-based
# [17] = biological target: Luciferin 4-monooxygenase (Photinus pyralis, UniProt P08659); assay: Counter Screen for Luciferase-based Assay Positives. [Related pubchem assays: 620, 618, 411 ]
# Chain of Luciferin 4-monooxygenase (P08659 whole entry): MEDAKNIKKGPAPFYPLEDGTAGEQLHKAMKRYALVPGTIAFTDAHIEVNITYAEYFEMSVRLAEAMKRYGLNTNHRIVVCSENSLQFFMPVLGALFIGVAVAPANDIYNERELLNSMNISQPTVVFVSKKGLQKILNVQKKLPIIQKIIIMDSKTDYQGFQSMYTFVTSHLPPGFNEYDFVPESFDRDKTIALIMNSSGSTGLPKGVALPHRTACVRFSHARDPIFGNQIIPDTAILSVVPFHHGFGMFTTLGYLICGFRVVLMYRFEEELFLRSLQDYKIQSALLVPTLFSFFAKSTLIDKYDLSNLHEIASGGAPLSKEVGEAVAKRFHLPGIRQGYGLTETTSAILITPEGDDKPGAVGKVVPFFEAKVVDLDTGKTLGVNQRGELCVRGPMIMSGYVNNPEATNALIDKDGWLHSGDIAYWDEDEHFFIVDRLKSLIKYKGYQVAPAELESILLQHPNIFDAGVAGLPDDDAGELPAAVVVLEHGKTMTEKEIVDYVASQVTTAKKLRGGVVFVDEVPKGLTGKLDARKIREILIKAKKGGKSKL
# [18] = biological target: T4, Estrogen receptor beta (Homo sapiens, UniProt Q92731); assay: blockers of SRC-3 recruitment to ERβ – biochemical, ELISA, streptavidin-HRP readout, orthogonal assay, confirmation (AID 1060)
# T4 sequence (Q92731 whole entry): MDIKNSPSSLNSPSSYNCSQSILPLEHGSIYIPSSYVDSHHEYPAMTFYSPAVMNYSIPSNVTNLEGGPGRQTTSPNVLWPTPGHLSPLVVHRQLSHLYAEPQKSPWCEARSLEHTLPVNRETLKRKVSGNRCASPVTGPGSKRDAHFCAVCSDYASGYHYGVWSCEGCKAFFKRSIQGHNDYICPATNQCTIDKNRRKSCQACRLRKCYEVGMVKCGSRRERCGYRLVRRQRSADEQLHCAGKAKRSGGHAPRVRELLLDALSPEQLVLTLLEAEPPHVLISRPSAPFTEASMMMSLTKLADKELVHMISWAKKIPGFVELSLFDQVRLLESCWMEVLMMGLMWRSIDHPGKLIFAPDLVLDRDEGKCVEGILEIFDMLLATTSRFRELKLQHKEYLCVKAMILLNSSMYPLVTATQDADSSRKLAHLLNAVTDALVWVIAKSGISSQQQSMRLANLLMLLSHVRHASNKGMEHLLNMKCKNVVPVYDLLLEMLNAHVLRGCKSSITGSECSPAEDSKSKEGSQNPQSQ
# [19] = biological target: T4, Estrogen receptor beta
# [20] = biological target: T5, Estrogen receptor (Homo sapiens, UniProt P03372);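 note: potency for inhibiting coactivator peptide recruitment to the receptor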
# T5 sequence (P03372 whole entry): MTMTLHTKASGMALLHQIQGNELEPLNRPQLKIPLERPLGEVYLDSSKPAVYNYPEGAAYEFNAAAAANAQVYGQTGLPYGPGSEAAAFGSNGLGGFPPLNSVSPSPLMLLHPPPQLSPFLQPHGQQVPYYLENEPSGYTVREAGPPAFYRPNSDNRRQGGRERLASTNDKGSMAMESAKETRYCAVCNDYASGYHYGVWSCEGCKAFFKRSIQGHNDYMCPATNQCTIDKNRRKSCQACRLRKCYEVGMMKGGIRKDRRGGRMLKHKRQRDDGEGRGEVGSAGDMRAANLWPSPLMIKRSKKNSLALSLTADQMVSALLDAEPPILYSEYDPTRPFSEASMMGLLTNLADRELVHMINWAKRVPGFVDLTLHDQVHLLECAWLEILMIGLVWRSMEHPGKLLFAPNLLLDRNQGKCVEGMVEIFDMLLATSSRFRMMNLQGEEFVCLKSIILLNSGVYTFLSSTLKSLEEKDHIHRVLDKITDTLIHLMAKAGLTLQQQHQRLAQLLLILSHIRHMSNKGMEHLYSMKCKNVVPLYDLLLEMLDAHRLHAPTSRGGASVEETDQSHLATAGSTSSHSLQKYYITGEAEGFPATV
# [21] = tested on: HT-1080; assay: HT1080 cell viability loss – fluorescence readout (AID 620); type: functional, cell-based; conditions: Homo sapiens
# [22] = biological target: T6, Heat shock factor protein 1 (Mus musculus, UniProt P38532); assay: enhancement of HSF1-driven luciferase signal – cell-based, NIH3T3, luminescence, dose retest, confirmation (AID 435004); type: functional;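 note: stress induced by proteasome inhibitor MG132 added 30 min after compound; luciferase reporter driven by HSF1 response element in NIH3T3 cells; actives raise luminescence as potentiators of the MG132 stress response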
# T6 sequence (P38532 whole entry): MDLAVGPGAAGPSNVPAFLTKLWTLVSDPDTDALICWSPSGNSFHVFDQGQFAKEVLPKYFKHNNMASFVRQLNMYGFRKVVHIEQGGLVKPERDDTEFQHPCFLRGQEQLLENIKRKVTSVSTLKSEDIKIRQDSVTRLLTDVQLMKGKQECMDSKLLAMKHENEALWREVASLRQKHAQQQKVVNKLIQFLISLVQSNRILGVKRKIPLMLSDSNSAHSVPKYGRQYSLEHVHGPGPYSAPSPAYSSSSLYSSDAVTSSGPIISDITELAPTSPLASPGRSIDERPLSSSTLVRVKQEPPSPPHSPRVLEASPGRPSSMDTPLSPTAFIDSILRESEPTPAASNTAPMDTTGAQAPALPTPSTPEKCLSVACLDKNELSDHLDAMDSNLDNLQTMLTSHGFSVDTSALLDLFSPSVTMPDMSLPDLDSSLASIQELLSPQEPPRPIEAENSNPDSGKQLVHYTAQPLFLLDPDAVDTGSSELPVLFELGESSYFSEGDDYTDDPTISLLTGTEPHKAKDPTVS
# [23] = biological target: T7, Apoptotic protease-activating factor 1 (Homo sapiens, UniProt O14727); type: functional
# T7 sequence (O14727 whole entry): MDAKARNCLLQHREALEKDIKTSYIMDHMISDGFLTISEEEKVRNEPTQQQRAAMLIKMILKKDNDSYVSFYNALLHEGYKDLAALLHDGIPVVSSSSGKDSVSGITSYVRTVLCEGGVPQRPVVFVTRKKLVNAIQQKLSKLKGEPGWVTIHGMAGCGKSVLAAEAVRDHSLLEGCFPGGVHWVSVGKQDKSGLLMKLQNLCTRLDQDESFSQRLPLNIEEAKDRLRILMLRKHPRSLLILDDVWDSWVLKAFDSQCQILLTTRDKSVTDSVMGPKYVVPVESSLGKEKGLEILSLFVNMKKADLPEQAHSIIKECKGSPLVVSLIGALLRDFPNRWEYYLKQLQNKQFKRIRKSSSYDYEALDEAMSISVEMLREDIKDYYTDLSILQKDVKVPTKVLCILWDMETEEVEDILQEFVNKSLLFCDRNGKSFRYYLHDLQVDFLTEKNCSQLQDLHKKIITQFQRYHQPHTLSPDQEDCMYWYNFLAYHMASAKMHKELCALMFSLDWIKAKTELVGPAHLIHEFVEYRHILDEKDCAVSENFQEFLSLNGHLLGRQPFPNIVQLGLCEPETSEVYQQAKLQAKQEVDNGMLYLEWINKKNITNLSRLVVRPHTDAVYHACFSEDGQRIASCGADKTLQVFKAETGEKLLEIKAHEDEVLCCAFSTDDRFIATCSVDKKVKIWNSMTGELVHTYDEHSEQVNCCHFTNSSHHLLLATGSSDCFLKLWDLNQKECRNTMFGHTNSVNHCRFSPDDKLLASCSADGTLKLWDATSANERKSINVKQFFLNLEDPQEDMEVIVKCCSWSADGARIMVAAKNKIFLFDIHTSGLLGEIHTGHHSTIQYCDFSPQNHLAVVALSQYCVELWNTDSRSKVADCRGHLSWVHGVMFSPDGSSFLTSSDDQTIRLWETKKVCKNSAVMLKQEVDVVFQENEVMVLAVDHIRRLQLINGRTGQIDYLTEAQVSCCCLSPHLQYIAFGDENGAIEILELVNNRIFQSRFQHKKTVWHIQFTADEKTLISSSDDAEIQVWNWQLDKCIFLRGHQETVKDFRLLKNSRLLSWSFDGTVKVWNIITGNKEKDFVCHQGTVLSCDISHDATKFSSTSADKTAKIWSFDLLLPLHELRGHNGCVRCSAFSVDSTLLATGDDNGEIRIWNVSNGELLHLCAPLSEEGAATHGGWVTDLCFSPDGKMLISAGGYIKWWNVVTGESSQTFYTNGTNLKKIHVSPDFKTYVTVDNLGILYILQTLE
# [24] = MIN6 cell viability loss – mouse insulinoma, cytotoxicity control, dose response (AID 2122); type: functional;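 note: confirmatory high-throughput counterscreen run to flag cytotoxic compounds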
# [25] = decrease of insulin promoter-GFP reporter – imaging, high-content screening, mouse beta cells (AID 1628); type: functional; conditions: MIN6
# [26] = biological target: T8, Bcl-2-related protein A1 (Mus musculus, UniProt Q07440); type: functional;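 note: confirmatory dose–response counterscreen on Bfl-1, used to check hits from a UBC13 polyubiquitin inhibitor campaign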
# T8 sequence (Q07440 whole entry): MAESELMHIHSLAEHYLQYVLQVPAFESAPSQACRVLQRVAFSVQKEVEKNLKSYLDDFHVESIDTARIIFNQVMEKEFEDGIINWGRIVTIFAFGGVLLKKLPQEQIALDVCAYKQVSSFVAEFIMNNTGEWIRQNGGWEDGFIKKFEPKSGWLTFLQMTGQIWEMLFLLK
# [27] = biological target: T9, Ubiquitin-conjugating enzyme E2 N (Homo sapiens, UniProt P61088); type: functional
# T9 sequence (P61088 whole entry): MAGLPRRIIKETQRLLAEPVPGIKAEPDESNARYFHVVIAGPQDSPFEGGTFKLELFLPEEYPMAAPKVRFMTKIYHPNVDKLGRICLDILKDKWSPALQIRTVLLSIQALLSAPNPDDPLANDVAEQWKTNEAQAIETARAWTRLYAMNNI
# [28] = biological target: T9, Ubiquitin-conjugating enzyme E2 N; type: functional; remark: listed apart in the source
# 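Throughout, for AC50: cells exposed to compound for roughly 70 hours or longer before luminescence read.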
compound,measurement,setting,value
COC(=O)c1sc2nc(N3CCCCC3)c3c(c2c1N)CCCC3,AC50,[1],2.95 µM (active)
same,IC50,[2],> 50 µM (active)
same,CC50,[3],> 50 µM (active)
CCN=C(S)Nc1cc(-c2ccc(Cl)cc2)[nH]n1,EC50,[4],> 50 µM (active)
same,IC50,[5],> 50 µM (not active)
C=CCn1c(SCC(=O)OC)nc2sc3c(c2c1=O)CCN(C)C3,IC50,[6],71 µM (inactive)
O=C1c2ccccc2C(=O)N1CCCCN(C(=O)c1cc2ccccc2oc1=O)c1ccc(Cl)cc1,IC50,[2],21.9 µM (active)
CCCCCn1c(N2CCC(Cc3ccccc3)CC2)nc2c1c(=O)[nH]c(=O)n2C,EC50,[7],12.7 µM (active)
same,EC50,[8],11.9 µM (active)
same,EC50,[9],> 60 µM (not active)
same,EC50,[10],9.08 µM (active)
same,EC50,[11],0.971 µM (active)
CC[n+]1c(C)n(-c2ccccc2)c2ccc(NC(C)=O)cc21,IC50,[5],> 50 µM (not active)
same,IC50,[12],5.18 µM (active)
CC(C)C(C)(C#N)NC(=O)CSc1nc2scc(-c3ccco3)c2c(=O)n1-c1ccccc1 (stereo unspecified),IC50,[13],11.3 µM (not active)
C/C(=N/Nc1cc(-c2ccccc2)nc(-c2ccccc2)n1)c1ccc(O)cc1,CC50,[14],18.2 µM (active)
same,EC50,[15],1.56 µM (active)
same,EC50,[16],1.52 µM (active)
same,EC50,[10],15.9 µM (active)
CCc1ccc(NC(=O)c2noc3c2CCC3)cc1,EC50,[17],1.4 µM (active)
same,IC50,[6],21.7 µM (active)
same,IC50,[18],< 0.023 µM (not active)
same,IC50,[19],5.5 µM (active)
same,IC50,[20],7.94 µM (active)
same,EC50,[21],> 50 µM (not active)
O=[N+]([O-])c1ccccc1S(=O)(=O)Nc1cccc(-c2ccc(N3CCOCC3)nn2)c1,IC50,[2],16.8 µM (active)
same,CC50,[3],> 50 µM (active)
CCCCCCOc1ccc(/C(C)=N/NC2=NCCN2)cc1[N+](=O)[O-],EC50,[22],> 260 µM (inactive)
same,AC50,[1],4.9 µM (active)
same,IC50,[23],70.5 µM (active)
same,IC50,[24],2.11 µM (active)
same,IC50,[25],2.34 µM (active)
same,IC50,[26],> 20 µM (inactive)
same,IC50,[27],12.1 µM (active)
same,EC50,[9],> 30 µM (not active)
same,EC50,[10],18.9 µM (active)
same,EC50,[11],2.15 µM (active)
same,IC50,[28],12.6 µM (active)
Cc1ccc(CCCOC(=O)C[N+]2(C)CCCC2)cc1,IC50,[5],> 50 µM (not active)
same,IC50,[12],11 µM (active)
COc1cc(C(=O)OCC(=O)Nc2c(F)c(F)c(F)c(F)c2F)cc(OC)c1OC,IC50,[20],> 50 µM (not active)
